From patent publication US8846675B2, “N-linked heterocyclic receptor agonists for the treatment of diabetes and metabolic disorders” (Cymabay Therapeutics, Inc., priority 2007, dated 2014)
Where a name gives a salt, the structure may show the parent alone.

Target: T1, IC-GPCR2 (Homo sapiens, UniProt Q8TDV5)
T1 construct: expressed in transfected cells
T1 sequence (Q8TDV5 1-335 S309L): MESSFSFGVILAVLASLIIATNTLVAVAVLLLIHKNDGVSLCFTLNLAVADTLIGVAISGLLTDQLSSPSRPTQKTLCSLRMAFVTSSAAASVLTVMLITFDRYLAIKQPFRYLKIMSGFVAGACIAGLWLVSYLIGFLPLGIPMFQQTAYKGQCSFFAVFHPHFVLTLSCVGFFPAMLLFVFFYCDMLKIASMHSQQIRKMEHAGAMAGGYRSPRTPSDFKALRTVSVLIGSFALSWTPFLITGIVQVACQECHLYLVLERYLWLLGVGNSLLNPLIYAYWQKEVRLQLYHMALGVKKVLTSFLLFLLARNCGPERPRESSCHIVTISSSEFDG
Experiment: Stimulation of cAMP in CHO cell line stably expressing IC-GPCR2 (HTRF cAMP dynamic kit)
Type: cell-based
Conditions: 3 μM compound; relative to maximal activity of 5-Ethyl-2-{4-[4-(4-tetrazol-1-yl-phenoxymethyl)-thiazol-2-yl]-piperidin-1-yl}-pyrimidine (=100%); IC-GPCR2 stably expressing CHO cells, 30 minutes
Experimental: This assay was developed using a stable cell line expressing IC-GPCR-2, generated as follows. IC-GPCR2 (Seq. ID No. 1) was cloned into Gateway pDEST 40vector (Invitrogen), using the Gateway cloning system (invitrogen) according to the manufacturers instructions. A stable cell line was generated by transfecting a 10 cm plate of CHO cells (source) with 8 ug of this construct using Transit-CHO transfection kit (Mirus). CHO cells were plated the day prior to transfection at a density of 3,000,000 cells/plate. Clones were selected using the antibiotic G418 at 500 ug/ml. 23 clones were picked and assayed for the expression of the receptor by measuring changes in intracellular cAMP levels in response to an IC-GPCR2 agonist (Arena 51).
To measure cAMP activity in response to IC-GPCR2 agonist, the clones were plated in 96 well plates at 17500 cells per well. On the day after plating, cells were incubated with the IC-CPCR2 agonist at […] for 30 minutes in Ham's F12 Media (Gibco) with 0.04% DMSO. cAMP was measured using the cAMP dynamic kit from C is Bio (Bedford, Mass.) according to the manufacturers instructions. Briefly, cells were lysed, and cAMP levels determined by competitive immunoassay using D2 labeled cAMP, and europium cryptate tagged anti cAMP antibody. When in close proximity, the D2 and europium cryptate undergo fluorescence resonance energy transfer (FRET), which is measured as a fluorescence ratio (665 nm/620 nm). Unlabelled cAMP in the cell lysatc competed with the D2 labeled cAMP for the europium crypate labeled antibody. The resulting decrease in FRET signal corresponded to intracellular cAMP levels. Fluorescence was read on a BMG Labtech PHERAstar, software version 1.50.
The clone with the greatest response to IC-GPCR2 agonist was selected for the screening assay.
Compounds were dissolved in 100% DMSO to a concentration of […] to provide stock solutions. To determine activity against IC-GPCR2, compounds were incubated with IC-GPCR2 stably expressing cells (described above), at 6-8 concentrations ranging from 0.00003 to 10 micromolar, in 96 well plates, in 50 ul of Hams F12 media for 30 minutes. Cells were plated at 17500 cells per well 1 day before running the assay. All compounds were also screened against the parental CHO cells. cAMP was measured using the cAMP dynamic kit from Cis Bio (Bedford, Mass.), according to the manufacturer's instructions. Briefly, cells were lysed and cAMP levels determined by competitive immunoassay using D2 labeled cAMP, and europium cryptate tagged anti cAMP antibody. When in close proximity, the D2 and europium cryptate undergo fluorescence resonance energy transfer (FRET), which is measured as a fluorescence ratio (665 nm/620 nm). Unlabelled cAMP in the cell lysate competed with the D2 labeled cAMP for the europium crypate labeled antibody. The resulting decrease in FRET signal corresponded to intracellular cAMP levels
To determine percent activity for a tested compound, the FRET signal value obtained at a particular concentration are compared to the Maximal FRET signal value obtained for 5-Ethyl-2-{4-[4-(4-tetrazol-1-yl-phenoxymethyl)-thiazol-2-yl]-piperidin-1-yl}-pyrimidine. The maximal activity of 5-Ethyl-2-{4-[4-(4-tetrazol-1-yl-phenoxymethyl)-thiazol-2-yl]-piperidin-1-yl}-pyrimidine is designated as 100% activity. Typically, the concentration of 5-Ethyl-2-{4-[4-(4-tetrazol-1-yl-phenoxymethyl)-thiazol-2-yl]-piperidin-1-yl}-pyrimidine in the assay was approximately 0.1 μM. The synthesis of 5-Ethyl-2-{4-[4-(4-tetrazol-1-yl-phenoxymethyl)-thiazol-2-yl]-piperidin-1-yl}-pyrimidine is disclosed in co-owned pending U.S. patent application Ser. No. 11/964,461, herein incorporated by reference. Activities of compounds that were tested are shown in Table 1 below and are expressed as % activity at 3 μM compound compared to the maximal activity of 5-Ethyl-2-{4-[4-(4-tetrazol-1-yl-phenoxymethyl)-thiazol-2-yl]-piperidin-1-yl}-pyrimidine at 3 μM.

Row | SMILES | % activity at 3 μM
1 | FC(F)(F)c1cnc(N2CCC(n3ncc(COc4ccc(-n5cnnn5)nc4)n3)CC2)nc1 [Example 22, 2-{4-[4-(6-Tetrazol-1-yl-pyridin-3-yloxymethyl)-[1,2,3]triazol-2-yl]-piperidin-1-yl}-5-trifluoromethyl-pyrimidine] | 78.44%
2 | Fc1cnc(N2CCC(n3ncc(COc4ccc(-n5cnnn5)cc4F)n3)CC2)nc1 [Example 30, 5-Fluoro-2-(4-(4-((2-fluoro-4-(1H-tetrazol-1-yl)phenoxy)methyl)-2H-1,2,3-triazol-2-yl)piperidin-1-yl)pyrimidine] | 53.41%
3 | CC(C)OC(=O)N1CCC(n2ncc(COc3ccc(S(C)(=O)=O)cc3F)n2)CC1 [Example 36, Isopropyl 4-(4-((2-fluoro-4-(methylsulfonyl)phenoxy)methyl)-2H-1,2,3-triazol-2-yl)piperidine-1-carboxylate] | 70.06%
4 | CC(C)OC(=O)N1CCC(n2ncc(COc3ccc(-n4cnnn4)cc3F)n2)CC1 [Example 37, Isopropyl 4-(4-((2-fluoro-4-(1H-tetrazol-1-yl)phenoxy)methyl)-2H-1,2,3-triazol-2-yl)piperidine-1-carboxylate] | 62.88%
5 | Cc1ncccc1OCc1cnn(C2CCN(c3ncc(C(F)(F)F)cn3)CC2)n1 [Example 48] | 83.24%
6 | CC(C)(C)OC(=O)N1CCC(CC(=O)N2CCC(n3ncc(COc4ccc(-n5cnnn5)nc4)n3)CC2)CC1 [Example 50, tert-Butyl 4-(2-(4-(-((6-(1H-tetrazol-1-yl)pyridine-3-yloxy)methyl)-2H-1,2,3-triazol-2-yl)piperidin-1-yl)-2-oxoethyl)piperidine-1-carboxylate] | 49.51%
7 | O=C(CC1CCNCC1)N1CCC(n2ncc(COc3ccc(-n4cnnn4)nc3)n2)CC1 [Example 51, 1-(4-(4-((6-(1H-Tetrazol-1-yl)pyridin-3-yloxy)methyl)-2H-1,2,3-triazol-2-yl)piperidin-1-yl)-2-(piperidin-4-yl)ethanone hydrochloride] | 57.93%
8 | COC(=O)Cc1cnc(N2CCC(n3ncc(COc4ccc(-n5cnnn5)nc4)n3)CC2)nc1 [Example 52, Methyl 2-(2-(4-(4-((6-(1H-tetrazol-1-yl)pyridin-3-yloxy)methyl)-2H-1,2,3-triazol-2-yl)piperidin-1-yl)pyrimidin-5-yl)acetate] | 52.86%
9 | CC(C)(C)OC(=O)N[C@H](CC(=O)N1CCC(n2ncc(COc3ccc(-n4cnnn4)nc3)n2)CC1)Cc1cc(F)c(F)cc1F [Example 56, (S)-tert-Butyl 4-(4-(4-((6-(1H-tetrazol-1-yl)pyridin-3-yloxy)methyl)-2H-1,2,3-triazol-2-yl)piperidin-1-yl)-4-oxo-1-(2,4,5-trifluorophenyl)butan-2-ylcarbamate] | 7.31%
10 | N[C@H](CC(=O)N1CCC(n2ncc(COc3ccc(-n4cnnn4)nc3)n2)CC1)Cc1cc(F)c(F)cc1F [Example 57, (S)-1-(4-(4-((6-(1H-tetrazol-1-yl)pyridin-3-yloxy)methyl)-2H-1,2,3-triazol-2-yl)piperidin-1-yl)-3-amino-4-(2,4,5-trifluorophenyl)butan-1-one hydrochloride] | 27.80%

Results, then the molecule that gave them:

Row | % activity at 3 μM | SMILES
11 | 48.76% | c1cc(-n2cnnn2)ncc1OCc1cnn(C2CCN(c3nc(C4CC4)no3)CC2)n1 [Example 29, 5-{2-[1-(3-Cyclopropyl-[1,2,4]oxadiazol-5-yl)-piperidin-4-yl]-2H-[1,2,3]triazol-4-ylmethoxy}-2-tetrazol-1-yl-pyridine]
12 | 59.95% | Fc1cnc(N2CCC(n3ncc(COc4ccc(-n5cnnn5)nc4)n3)CC2)nc1 [Example 31, 2-(4-(4-((6-(1H-tetrazol-1-yl)pyridin-3-yloxy)methyl)-2H-1,2,3-triazol-2-yl)piperidin-1-yl)-5-fluoropyrimidine]
13 | 75.55% | CCc1cnc(N2CCC(n3ncc(COc4ccc(-n5cnnn5)nc4)n3)CC2)nc1 [Example 32, 2-(4-(4-((6-(1H-tetrazol-1-yl)pyridin-3-yloxy)methyl)-2H-1,2,3-triazol-2-yl)piperidin-1-yl)-5-ethylpyrimidine]
14 | 72.14% | CC(C)OC(=O)N1CCC(n2ncc(COc3ccc(-n4cnnn4)nc3)n2)CC1 [Example 35, Isopropyl 4-(4-((6-(1H-tetrazol-1-yl)pyridin-3-yloxy)methyl)-2H-1,2,3-triazol-2-yl)piperidine-1-carboxylate]
15 | 7.10% | O=S(=O)(c1c[nH]cn1)N1CCC(n2ncc(COc3ccc(-n4cnnn4)nc3)n2)CC1 [Example 40, 5-((2-(1-(1H-Imidazol-4-ylsulfonyl)piperidin-4-yl)-2H-1,2,3-triazol-4-yl)methoxy)-2-(1H-tetrazol-1-yl)pyridine]
16 | 42.63% | O=S(=O)(C1CC1)N1CCC(n2ncc(COc3ccc(-n4cnnn4)nc3)n2)CC1 [Example 41, 5-((2-(1-(Cyclopropylsulfonyl)piperidin-4-yl)-2H-1,2,3-triazol-4-yl)methoxy)-2-(1H-tetrazol-1-yl)pyridine]
17 | 70.92% | O=S(=O)(C1CCCCC1)N1CCC(n2ncc(COc3ccc(-n4cnnn4)nc3)n2)CC1 [Example 44, 5-((2-(1-(Cyclohexylsulfonyl)piperidin-4-yl)-2H-1,2,3-triazol-4-yl)methoxy)-2-(1H-tetrazol-1-yl)pyridine]
18 | 67.58% | CC(C)S(=O)(=O)N1CCC(n2ncc(COc3ccc(-n4cnnn4)nc3)n2)CC1 [Example 45, 5-((2-(1-(Isopropylsulfonyl)piperidin-4-yl)-2H-1,2,3-triazol-4-yl)methoxy)-2-(1H-tetrazol-1-yl)pyridine]
19 | 79.78% | CCCCS(=O)(=O)N1CCC(n2ncc(COc3ccc(-n4cnnn4)nc3)n2)CC1 [Example 46, 5-((2-(1-(Butylsulfonyl)piperidin-4-yl)-2H-1,2,3-triazol-4-yl)methoxy)-2-(1H-tetrazol-1-yl)pyridine]
20 | 74.90% | O=S(=O)(Cc1ccccc1)N1CCC(n2ncc(COc3ccc(-n4cnnn4)nc3)n2)CC1 [Example 47, 5-((2-(1-(Benzylsulfonyl)piperidin-4-yl)-2H-1,2,3-triazol-4-yl)methoxy)-2-(1H-tetrazol-1-yl)pyridine]
21 | 36.82% | C[C@H](NC(=O)OC(C)(C)C)C(=O)N1CCC(n2ncc(COc3ccc(-n4cnnn4)nc3)n2)CC1 [Example 54, (S)-tert-Butyl 1-(4-(4-((6-(1H-tetrazol-1-yl)pyridin-3-yloxy)methyl)-2H-1,2,3-triazol-2-yl)piperidin-1-yl)-1-oxopropan-2-ylcarbamate]
22 | 31.89% | C[C@H](N)C(=O)N1CCC(n2ncc(COc3ccc(-n4cnnn4)nc3)n2)CC1 [Example 55, (S)-1-(4-(4-((6-(1H-tetrazol-1-yl)pyridin-3-yloxy)methyl)-2H-1,2,3-triazol-2-yl)piperidin-1-yl)-2-aminopropan-1-one hydrochloride]
